Consider six compounds from publication PMC5308383 (2016).

In test [1] the test system is CBSA-5335 (fluorophore/quencher-modified) (DNA, aptamer, C3 spacer abasic at 10 of strand 2) CTCCTTCAACGAAGTGGGTCTCCTTCAACGAAGTGGGTCTC/GAGACAAGGNGACAAGGAGT
Put plainly: fluorophore/quencher assembly assay. The conditions noted are these: 100 μM MgCl2.

For test [2], the system named is CBSA-5325 (DNA, aptamer, C3 spacer abasic at 10 of strand 2) CTCCTTCAACGAAGTGGGTTCCTTCAACGAAGTGGGTCTC/GAGACAAGGNACAAGGAG
The experiment in a line: ATMND quenching assembly assay. The conditions noted are these: 100 μM MgCl2; 10 mM Tris-HCl, pH 7.4; 1 μM each strand; 200 nM ATMND; 250 μM cocaine, 72% quenching.

Test [3] concerns CBSA-5435 (DNA, aptamer, C3 spacer abasic at 11 of strand 2) CTCCTTCAACGAAGTGGGTCTTCCTTCAACGAAGTGGGTCTC/GAGACAAGGANGACAAGGAG
Put plainly: ATMND quenching assembly assay. Conditions: 100 μM MgCl2.

For test [4], the system named is 38-GC-20A (DNA, aptamer) GGGAGACAAGGAAAATCCTACAACGAAGTGGGTCTCCC
The experiment in a line: ITC. Conditions: 20 μM aptamer, 500 μM cocaine titrant.

For test [5], the system named is 38-GC-22G (DNA, aptamer) GGGAGACAAGGAAAATCCTTCGACGAAGTGGGTCTCCC
The experiment in a line: ITC. The conditions noted are these: 20 μM aptamer, 500 μM cocaine titrant.

The subject of test [6] is 38-GC-20C (DNA, aptamer) GGGAGACAAGGAAAATCCTCCAACGAAGTGGGTCTCCC
The experiment in a line: ITC. The conditions noted are these: 20 μM aptamer, 500 μM cocaine titrant.

In test [7] the test system is LSA (DNA, aptamer, C3 spacer abasic at 10 of strand 2) CTCCTTCAACGAAGTGGGTTCCTTGTCTC/GAGACAAGGNACAAGGAG
The experiment in a line: ATMND quenching assembly assay. The conditions noted are these: 100 μM MgCl2; 10 mM Tris-HCl, pH 7.4; 1 μM each strand; 250 μM cocaine, additional 10% change; mostly pre-assembled.

Test [8] deals with 38-GC (DNA, aptamer) GGGAGACAAGGAAAATCCTTCAACGAAGTGGGTCTCCC
The experiment in a line: ITC. The conditions noted are these: 20 μM aptamer, 500 μM cocaine titrant.

The test system of test [9] is CBSA-M2 (DNA, aptamer, C3 spacer abasic at 10 of strand 2) CTCCTTCGACGAAGTGGGTTCCTTCAACGAAGTGGGTCTC/GAGACAAGGNACAAGGAG
Put plainly: ATMND quenching assembly assay. Conditions: 100 μM MgCl2; 10 mM Tris-HCl, pH 7.4; 1 μM each strand; 200 nM ATMND; cocaine tested at 250 μM.

Test [10] relates to PSA (DNA, aptamer, C3 spacer abasic at 3 of strand 2) CTCCTTCAACGAAGTGGGTTCC/GGNACAAGGAG
The experiment in a line: ITC, single-site fit. The conditions noted are these: 100 μM MgCl2; 10 mM Tris-HCl, pH 7.4, 20 °C. On the technique in general: In ITC the heat of successive injections is recorded.

Test [11] has as its system 38-GC-22T (DNA, aptamer) GGGAGACAAGGAAAATCCTTCTACGAAGTGGGTCTCCC
Put plainly: ITC. The conditions noted are these: 20 μM aptamer, 500 μM cocaine titrant.

For test [12], the system named is CBSA-5335-GT (fluorophore/quencher-modified) (DNA, aptamer, C3 spacer abasic at 10 of strand 2) CTCCTTCAATGAAGTGGGTCTCCTTCAACGAAGTGGGTCTC/GAGACAAGGNGACAAGGAGT
The experiment in a line: fluorophore/quencher assembly titration, Hill fit. The conditions noted are these: 100 μM MgCl2; 10 mM Tris-HCl, pH 7.4, room temperature; 1 μM each strand; nH 1.5; apparent.

Test [13] has as its system CBSA-5335 (fluorophore/quencher-modified) (DNA, aptamer, C3 spacer abasic at 10 of strand 2) CTCCTTCAACGAAGTGGGTCTCCTTCAACGAAGTGGGTCTC/GAGACAAGGNGACAAGGAGT
Put plainly: fluorophore/quencher assembly titration, Hill fit. The conditions noted are these: 100 μM MgCl2; 10 mM Tris-HCl, pH 7.4, room temperature; 1 μM each strand; nH 1.5; apparent; b21 prints 33 μM.

Test [14] deals with CBSA-M1 (DNA, aptamer, C3 spacer abasic at 10 of strand 2) CTCCTTCAACGAAGTGGGTTCCTTCGACGAAGTGGGTCTC/GAGACAAGGNACAAGGAG
The experiment in a line: ATMND quenching assembly assay. Conditions: 100 μM MgCl2; 10 mM Tris-HCl, pH 7.4; 1 μM each strand; 200 nM ATMND; cocaine tested at 250 μM.

The test system of test [15] is CBSA-5445 (DNA, aptamer, C3 spacer abasic at 11 of strand 2) CTCCTTCAACGAAGTGGGTTCTTCCTTCAACGAAGTGGGTCTC/GAGACAAGGANGAACAAGGAG
The experiment in a line: ATMND quenching assembly assay. Conditions: 100 μM MgCl2.

Test [16] concerns 38-GC-21T (DNA, aptamer) GGGAGACAAGGAAAATCCTTTAACGAAGTGGGTCTCCC
Put plainly: ITC. Conditions: 20 μM aptamer, 500 μM cocaine titrant.

In test [17] the test system is CBSA-5325 (fluorophore/quencher-modified) (DNA, aptamer, C3 spacer abasic at 10 of strand 2) CTCCTTCAACGAAGTGGGTTCCTTCAACGAAGTGGGTCTC/GAGACAAGGNACAAGGAGT
Put plainly: fluorophore/quencher assembly titration, Hill fit. The conditions noted are these: 100 μM MgCl2; 10 mM Tris-HCl, pH 7.4, room temperature; 1 μM each strand; nH 1.1; apparent.

Test [18] deals with CBSA-5325 (DNA, aptamer, C3 spacer abasic at 10 of strand 2) CTCCTTCAACGAAGTGGGTTCCTTCAACGAAGTGGGTCTC/GAGACAAGGNACAAGGAG
Put plainly: fluorescence quenching titration, Scatchard. The conditions noted are these: 100 μM MgCl2; 10 mM Tris-HCl, pH 7.4; 200 nM ATMND; 1 mM cocaine present (cocaine-assembled aptamer).

The subject of test [19] is LSA (DNA, aptamer, C3 spacer abasic at 10 of strand 2) CTCCTTCAACGAAGTGGGTTCCTTGTCTC/GAGACAAGGNACAAGGAG
Put plainly: fluorescence quenching. Conditions: 100 μM MgCl2; 10 mM Tris-HCl, pH 7.4; 1 μM each strand; 200 nM ATMND; no cocaine; 75% quenching.

For `COC(=O)C1=CC[C@@H]2CC[C@H]1N2C`, the binding result in [1] is on record as “no”.

With `CN1[C@H]2CC[C@@H]1[C@@H](C(=O)O)[C@@H](OC(=O)c1ccccc1)C2`, in [1], the binding result is “no”.

With `CN1CCC[C@H]1c1cccnc1`, the binding entry in test [1] (10% saliva, 10 mM Tris-HCl, pH 7.4, room temperature, tested at 50 μM) is recorded as “no”.

`CCOC(=O)[C@H]1[C@@H](OC(=O)c2ccccc2)C[C@@H]2CC[C@H]1N2C`: the binding entry in test [1] (10% saliva, room temperature, 19% cross-reactivity at 50 μM, 3% at 5 μM) is reported as “weak”.

With `COC(=O)[C@H]1[C@@H](OC(=O)c2ccccc2)C[C@@H]2CC[C@H]1N2C`, the binding result in test [2] is reported as “yes”; in test [3], “yes”; in [5], “no”; in test [7] it was “weak”; in [9] it was “no”; in test [14], “no”. For the same compound, the binding entry in test [15] is on record as “yes”. The KD was determined as 169 µM in test [4]; 714 µM in [6]; 2.60 µM in test [8]; 2000 µM in [10]; 169 µM in test [11]; 49.3 µM in [16]. In addition, the “K 1/2” value in test [12] amounted to 125 µM; in test [13], 36 µM; in test [17], 106 µM.

Regarding `Cc1nc2nc(N)ccc2c(C)c1C`, in test [18], the “KD” value came out at 0.365 µM. Also, the binding result in test [19] is listed as “yes”.

By KD is commonly meant the constant that tells how readily two partners part at equilibrium. Read a low KD as higher affinity.
